Test system: Mus musculus
Experiment: Hepatoprotective activity against D-GaIN/CCl4 induced liver injury mouse model assessed as reduction in GPT level at 30 microg/kg, iv relative to control
Assay type: functional
Parameters: scale not given: the % may be the effect or the level left
Details: dose 30 µg/kg

Compound | Activity [%]
CC(C)=CCC[C@@](C)(O)[C@H]1CC[C@]2(C)[C@@H]1[C@H](O)C[C@@H]1[C@@]3(C)CC[C@H](O)C(C)(C)[C@@H]3[C@@H](O[C@@H]3O[C@H](CO)[C@@H](O)[C@H](O)[C@H]3O[C@@H]3O[C@H](CO)[C@@H](O)[C@H](O)[C@H]3O)C[C@]12C | 73
CC(C)=CCC[C@](C)(O)[C@H]1CC[C@]2(C)[C@@H]1[C@H](O)C[C@@H]1[C@@]3(C)CC[C@H](O[C@@H]4O[C@H](CO)[C@@H](O)[C@H](O)[C@H]4O)C(C)(C)[C@@H]3CC[C@]12C [GINSENOSIDE RH2] | 31
CC(C)=CCC[C@@](C)(O)[C@H]1CC[C@]2(C)[C@@H]1[C@H](O)C[C@@H]1[C@@]3(C)CC[C@H](O[C@@H]4O[C@H](CO)[C@@H](O)[C@H](O)[C@H]4O[C@@H]4O[C@H](CO)[C@@H](O)[C@H](O)[C@H]4O)C(C)(C)[C@@H]3CC[C@]12C | 34
CC(C)=CCC[C@](C)(O)[C@H]1CC[C@]2(C)[C@@H]1[C@H](O)C[C@@H]1[C@@]3(C)CC[C@H](O)C(C)(C)[C@@H]3[C@@H](O[C@@H]3O[C@H](CO)[C@@H](O)[C@H](O)[C@H]3O[C@@H]3O[C@H](CO)[C@@H](O)[C@H](O)[C@H]3O)C[C@]12C [GINSENOSIDE RF] | 77
CC(C)=CCC[C@](C)(O[C@@H]1O[C@H](CO)[C@@H](O)[C@H](O)[C@H]1O)[C@H]1CC[C@]2(C)[C@@H]1[C@H](O)C[C@@H]1[C@@]3(C)CC[C@H](O)C(C)(C)[C@@H]3CC[C@]12C | 76

Test system: L02
Experiment: Hepatoprotective activity against D-GaIN-induced cell damage in human HL7702 cells assessed as increase in cell survival at 10 uM relative to control
Assay type: functional
Details: not given

Compound | Activity [%]
CC(=O)[C@H]1CC(=O)[C@@]2(C)C3=C(C(=O)C[C@]12C)[C@@]1(C)CCC(=O)C(C)(C)[C@@H]1C[C@@H]3O | 58
CC(CC(=O)C[C@@H](C)C1=CC(=O)[C@@]2(C)[C@@H]3C(=O)C[C@H]4C(C)(C)[C@@H](O)CC[C@]4(C)[C@H]3C(=O)C[C@]12C)C(=O)O (stereo partly specified) | 75
C/C(=C\CCC(C)(O)[C@H]1C[C@H](O)[C@@]2(C)C3=C(C(=O)C[C@]12C)[C@@]1(C)CC[C@H](O)C(C)(C)[C@@H]1C[C@@H]3O)C(=O)O (stereo partly specified) | 43
C/C(CC(=O)CC(C)C(=O)O)=C1/CC(=O)[C@@]2(C)C3=C(C(=O)C[C@]12C)[C@@]1(C)CC[C@H](O)C(C)(C)[C@@H]1CC3=O (stereo partly specified) | 55

Test system: Hepatocyte
Experiment: Hepatoprotective activity against D-GaIN/TNFalpha-induced cell death in mouse hepatocyte at 100 uM relative to control
Assay type: functional, cell-based
Details: Mus musculus, Hepatocyte

Compound | IC50 [µM]
CC1=C2C3=CC[C@@H]4[C@@]5(C)C[C@@H](O)[C@H](O)[C@@](C)(CO)[C@@H]5CC[C@@]4(C)[C@]3(C)CC[C@@]2(C(=O)O)CC[C@H]1C | 51

Species: Mus musculus
Experiment: Hepatoprotective activity in CCl4-induced toxicity in liver injured mouse assessed as increase in inhibition of liver damage relative to control
Assay type: functional
Parameters: concentration or dose not given beside the values
Details: not given

Compound | Activity [%]
CC(=O)OC[C@@]1(C)[C@@H]2CC[C@]3(C)[C@H](C(=O)C=C4[C@@H]5[C@@H](C)[C@H](C)CC[C@]5(C(=O)O)CC[C@]43C)[C@@]2(C)CC(=O)[C@@H]1OC(C)=O | 22
COC(=O)[C@]12CC[C@@H](C)[C@H](C)[C@H]1C1=CC[C@@H]3[C@@]4(C)CC(=O)[C@H](O)[C@@](C)(COC(C)=O)[C@@H]4CC[C@@]3(C)[C@]1(C)CC2 | 46.4
C[C@H]1[C@H](C)CC[C@]2(C(=O)O)CC[C@]3(C)C(=CC(=O)[C@@H]4[C@@]5(C)C[C@@H](O)[C@H](O)[C@@](C)(CO)[C@@H]5CC[C@]43C)[C@H]12 | 25.6
CC(=O)OC[C@@]1(C)[C@@H]2CC[C@]3(C)[C@H](C(=O)C=C4[C@@H]5[C@@H](C)[C@H](C)CC[C@]5(C(=O)O)CC[C@]43C)[C@@]2(C)CC(=O)[C@@H]1O | 35.9
C[C@H]1[C@H](C)CC[C@]2(CO)CC[C@]3(C)C(=CC[C@@H]4[C@@]5(C)C[C@@H](O)[C@H](O)[C@@](C)(CO)[C@@H]5CC[C@]43C)[C@H]12 | 39.7
COC(=O)[C@]12CC[C@@H](C)[C@H](C)[C@H]1C1=CC[C@@H]3[C@@]4(C)C[C@@H](OC(C)=O)[C@H](O)[C@@](C)(COC(C)=O)[C@@H]4CC[C@@]3(C)[C@]1(C)CC2 | 54.2
